Assay results published in patent publication US20160030472A1, “XENON-BASED ANESTHETIC GAS COMPOSITION USABLE DURING AN ENDARTERECTOMY INVOLVING THE CLAMPING OF THE CAROTID ARTERY” (Air Liquide Santé (International), priority 2013, published 2016).

Tested on: patients scheduled for carotid surgery
Experiment: Randomized study of xenon versus sevoflurane for maintaining general anesthesia during carotid endarterectomy with clamping of the internal carotid artery
Type: in vivo, human being
Settings: for average radial-carotid pressure gradient (PG) between systemic SAP and arterial pressure in the clamped carotid artery: during clamping of the internal carotid artery, group X (xenon 60%±5%, at least 30% oxygen) compared with group S (sevoflurane), 12 patients per group
Procedure: The study was carried out in 24 patients scheduled for carotid surgery, comprising men and women. The choice of treatment of the patients is made randomly (randomization): • either using a routine anesthetic agent, namely sevoflurane: group S of 12 patients, • or by inhalation of xenon at 60%±5% in a mixture with at least 30% of oxygen: group X of 12 patients (% by volume). Anesthesia was induced identically in the 2 groups using intravenous products, namely propofol (target 1.5 μg/ml) and a morphine compound, remifentanil (target 4 ng/ml), double TCI (Target Controlled Infusion). The main assessment criterion is the pressure gradient (PG) between the systolic arterial pressure (SAP) measured at the level of a radial arterial catheter contralateral to the surgery and the arterial pressure in the clamped carotid artery. This pressure is obtained by means of a Fogarty catheter, which also enables clamping of the internal carotid artery by inflation of the balloon, connected to a pressure sensor. The continuous recording and the calculation of the PG are carried out live by a BiopAC system. This method makes it possible to obtain a measurement of the PG throughout the entire duration of the clamping of the internal carotid artery. The statistical analyses are carried out with R Project for Statistician Computing (www.r-project.org).

Compound: FCOC(C(F)(F)F)C(F)(F)F [sevoflurane, reference compound]
- consumption of vasopressor products for maintaining the systemic arterial pressure (group S compared with group X, p<0.001): significantly higher

Compound: [Xe] [xenon]
- average radial-carotid pressure gradient (PG) between systemic SAP and arterial pressure in the clamped carotid artery (p<0.001): reduce the pressure gradient (PG)
- average radial-carotid pressure gradient (PG) between systemic SAP and arterial pressure in the clamped carotid artery (p<0.001, listed as group X): significantly lower
- hemodynamic parameters during maintenance of anesthesia (maintenance of anesthesia with xenon): stable
- systemic systolic arterial pressure values (maintenance of anesthesia with xenon, compared with the usual inhaled or intravenous (IV) anesthetic agents): higher
